Molecules are shown by their SMILES. pIC50: −log10 of the molar value.

This is an account of results in US5036080A, “(D)-6-fluoro-2,3-dihydro-2',5-dioxo-spiro[4H-1-benzo pyran-4,4'-imidazolide]-2-carboxamide compounds” (Sanwa Kagaku Kenyusho Co., Ltd., priority 1988, dated 1991).

Test [1] deals with aldose reductase. To be noted: cited from earlier work.
Test [2] has as its target T1, aldose reductase (Rattus norvegicus, UniProt P07943).
T1 construct: water-soluble extracts of crystalline lenses extracted from tested rats; from tissue; host or cells: rat crystalline lens, water-soluble extract
In words: Inhibition of aldose reductase activity (procedure of Kador and Sharpless). It counts as biochemical. Conditions: water-soluble extracts of crystalline lenses from rats. How it is done: Using water-soluble extracts of crystalline lenses extracted from tested rats, the inhibition of these compounds was determined.

Take `NC(=O)[C@H]1CC2(NC(=O)NC2=O)c2cc(F)ccc2O1` (single isomer, unassigned) [(d)-6-fluoro-2,3-dihydro-2',5'-dioxo-spiro[4H-1-benzopyran-4,4'-imidazolidine]-2-carboxamide]: in the test with aldose reductase [1], the “activity of inhibition to the aldose reductase in vitro and vivo tests, in comparison with other agents (in words)” value is recorded as “remarkable activity of inhibition to the aldose reductase”. Usually pIC50 stands for the IC50 on a negative log10 scale, so that one unit is a factor of ten. High values mean a small IC50, low ones a large IC50. At aldose reductase [2], `COC(=O)N1C(=O)NC2(CC(C(N)=O)Oc3ccc(F)cc32)C1=O` (single isomer, unassigned) [Example 3] had a negative-log IC50 (pIC50) of 7.35. For `CC(C)(C)C(=O)OCN1C(=O)NC2(C[C@H](C(N)=O)Oc3ccc(F)cc32)C1=O` (single isomer, unassigned) [Example 6, (d)-6-Fluoro-1'-pivaloyloxymethyl-2,3-dihydro-2',5'-dioxo-spiro[4H-1-benzopyran-4,4'-imidazolidine]-2-carboxamide], at aldose reductase [2], the pIC50 was 4.00. As to `Cc1ccc(S(=O)(=O)N2C(=O)NC3(C[C@H](C(N)=O)Oc4ccc(F)cc43)C2=O)cc1` (single isomer, unassigned) [Example 16-A, (d)-6-fluoro-1'-(p-toluenesulfonyl)-2,3-dihydro-2',5'-dioxo-spiro[4H-1-benzopyran-4,4'-imidazolidine]-2-carboxamide], the negative logarithm of the IC50 (pIC50) on aldose reductase [2] was 4.00.
